Where a name gives a salt, the structure may show the parent alone. Read-outs that look alike come from different tables or passages of the source.
Experiments:
[1] = target: Bcl-2 protein (Homo sapiens (Human), UniProt P10415); assay: Inhibition of Bcl-2 by the fluorescence polarisation technique; assay type: binding; settings: fluorescence polarisation test; concentration that inhibits fluorescence polarisation by 50%; read-out: IC50 (nM) Bcl-2 FP
Experimental: The fluorescence polarisation tests were carried out on microplates (384 wells). […] After incubation for 2 hours, the fluorescence polarisation is measured.

[2] = tested on: RS4;11 leukaemia tumour line; assay: In vitro cytotoxicity (Microculture Tetrazolium Assay, 48 hours); assay type: cell-based; settings: RS4;11 cells, 48 hours exposure, MTT, concentration that inhibits cell viability by 50%, read-out: IC50 (nM) MTT RS4
Experimental: The cytotoxicity studies were carried out on the RS4;11 leukaemia tumour line.
The cells are distributed onto microplates and exposed to the test compounds for 48 hours.

[3] = tested on: caspase 3; assay: Induction of caspase activity in vivo (DEVDase activity in tumour lysates, RS4;11 xenograft); parameters: species or system mice (SCID strain); settings: oral treatment, 16 hours after treatment, RS4;11 xenograft in SCID mice; for fold induction at 50 mg/kg / Activation factor (versus control), DEVDase activity in the tumours: 50 mg/kg
Experimental: The ability of the compounds of the invention to activate caspase 3 is evaluated in a xenograft model of RS4;11 leukaemia cells.
1×10^7 RS4;11 cells are grafted sub-cutaneously into immunosuppressed mice (SCID strain). 25 to 30 days after the graft, the animals are treated orally with the various compounds. Sixteen hours after treatment, the tumour masses are recovered and lysed, and the caspase 3 activity is measured in the tumour lysates.
This enzymatic measurement is carried out by assaying the appearance of a fluorigenic cleavage product (DEVDase activity, Promega). It is expressed in the form of an activation factor corresponding to the ratio between the two caspase activities:the activity for the treated mice divided by the activity for the control mice.

[4] = Mus musculus, read-out: Activation factor (versus control), DEVDase activity in the tumours

Bcl-2 protein, sequence (P10415 whole entry): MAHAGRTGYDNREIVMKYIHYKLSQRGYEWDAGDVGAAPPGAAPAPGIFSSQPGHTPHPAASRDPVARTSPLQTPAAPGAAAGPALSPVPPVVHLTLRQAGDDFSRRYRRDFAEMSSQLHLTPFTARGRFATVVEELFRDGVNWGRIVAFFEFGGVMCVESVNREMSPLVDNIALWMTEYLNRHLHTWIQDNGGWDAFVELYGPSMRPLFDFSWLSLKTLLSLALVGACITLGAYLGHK

| SMILES | IC50 [1] [nM] | IC50 ([2]; Homo sapiens) [nM] | fold induction at 50 mg/kg [3, 4] | fold induction at 100 mg/kg ([3]; Mus musculus, 100 mg/kg, read-out: Activation factor (versus control), DEVDase activity in the tumours) | IC50 [2] [nM] | Activation factor (versus control), DEVDase activity in the tumours [3] |
| --- | --- | --- | --- | --- | --- | --- |
| O=C(c1cc(-c2cc3c(cc2C(=O)N2Cc4ccccc4C[C@H]2CN2CCOCC2)OCO3)n2c1CCCC2)N(c1ccc(O)cc1)c1ccc2c(c1)CCN2 [Example 8, N-(2,3-Dihydro-1H-indol-5-yl)-N-[4-(hydroxy)phenyl]-3-{6-[((3S)-3-(4-morpholinylmethyl)-3,4-dihydro-2(1H)-isoquinolinyl)carbonyl]-1,3-benzodioxol-5-yl}-5,6,7,8-tetrahydro-1-indolizine carboxamide bis(hydrochloride)] | 15 | 25.6 | 9.8 | – | – | – |
| Cn1ccc2cc(N(C(=O)c3cc(-c4cc5c(cc4C(=O)N4Cc6ccccc6C[C@H]4CN4CCOCC4)OCO5)n4ccccc34)c3ccc(O)cc3)ccc21 [Example 59, N-(4-Hydroxyphenyl)-N-(1-methyl-1H-indol-5-yl)-3-{6-[((3S)-3-(4-morpholinylmethyl)-3,4-dihydro-2(1H)-isoquinolinyl)carbonyl]-1,3-benzodioxol-5-yl}-1-indolizine carboxamide hydrochloride] | 13 | 8.13 | 23 | – | – | – |
| Cc1ccc(N(C(=O)c2cc(-c3cc4c(cc3C(=O)N3Cc5ccccc5C[C@H]3CN3CCOCC3)OCO4)n3c2CCCC3)c2ccc(O)cc2)cc1 [Example 2, N-(4-Hydroxyphenyl)-N-(4-methylphenyl)-3-{6-[((3S)-3-(4-morpholinylmethyl)-3,4-dihydro-2(1H)-isoquinolinyl)carbonyl]-1,3-benzodioxol-5-yl}-5,6,7,8-tetrahydro-1-indolizine carboxamide hydrochloride] | 20 | 49.8 | – | 27.8 | – | – |
| Cn1ccc2cc(N(C(=O)c3cc(-c4cc(Cl)ccc4C(=O)N4Cc5ccccc5C[C@H]4CN4CCOCC4)n4c3CCCC4)c3ccc(O)cc3)ccc21 [Example 22, 3-{5-Chloro-2-[((3S)-3-(4-morpholinylmethyl)-3,4-dihydro-2(1H)-isoquinolinyl)carbonyl]phenyl}-N-(4-hydroxyphenyl)-N-(1-methyl-1H-indol-5-yl)-5,6,7,8-tetrahydro-1-indolizine carboxamide hydrochloride] | 27 | 19.1 | 11.3 | – | – | – |
| CN1CCc2cc(N(C(=O)c3cc(-c4cc(Cl)ccc4C(=O)N4Cc5ccccc5C[C@H]4CN4CCOCC4)n4c3CCCC4)c3ccc(O)cc3)ccc21 [Example 23, 3-{5-Chloro-2-[((3S)-3-(4-morpholinylmethyl)-3,4-dihydro-2(1H)-isoquinolinyl)carbonyl]phenyl}-N-(4-hydroxyphenyl)-N-(1-methyl-2,3-dihydro-1H-indol-5-yl)-5,6,7,8-tetrahydro-1-indolizine carboxamide bis(hydrochloride)] | 14 | 23 | 22.7 | – | – | – |
| Cn1ccc2cc(N(C(=O)c3cc(-c4cc(Cl)ccc4C(=O)N4Cc5ccccc5C[C@H]4CN4CCOCC4)n4ccccc34)c3ccc(O)cc3)ccc21 [Example 67, 3-{5-Chloro-2-[((3S)-3-(4-morpholinylmethyl)-3,4-dihydro-2(1H)-isoquinolinyl)carbonyl]phenyl}-N-(4-hydroxyphenyl)-N-(1-methyl-1H-indol-5-yl)-1-indolizine carboxamide hydrochloride] | 24 | 17.7 | 18.9 | – | – | – |
| Cl.O=C(c1cc(-c2cc3c(cc2C(=O)N2Cc4ccccc4C[C@H]2CN2CCOCC2)OCO3)n2c1CCCC2)N(c1ccc(O)cc1)c1ccc(Cl)cc1 [Example 3, N-(4-Chlorophenyl)-N-(4-hydroxyphenyl)-3-{6-[((3S)-3-(4-morpholinylmethyl)-3,4-dihydro-2(1H)-isquinolinyl)carbonyl]-1,3-benzdioxol-5-yl}-5,6,7,8-tetrahydro-1-indolizine carboxamide hydrochloride] | – | – | – | – | 44.7 | 5.7 (50 mg/kg) |
| CN1CCc2cc(N(C(=O)c3cc(-c4cc(Cl)ccc4C(=O)N4Cc5ccccc5C[C@H]4CN4CCOCC4)n4ccccc34)c3ccc(O)cc3)ccc21 [Example 66, 3-{5-Chloro-2-[((3S)-3-(4-morpholinylmethyl)-3,4-dihydro-2(1H)-isoquinolinyl)carbonyl]phenyl}-N-(4-hydroxyphenyl)-N-(1-methyl-2,3-dihydro-1H-indol-5-yl)-1-indolizine carboxamide bis(hydrochloride)] | 16 | 21.7 | 24.7 | – | – | – |
| Cl.O=C(c1cc(-c2cc3c(cc2C(=O)N2Cc4ccccc4C[C@H]2CN2CCOCC2)OCO3)n2ccccc12)N(c1ccccc1)c1ccc(O)cc1 [Example 58, N-(4-Hydroxyphenyl)-3-{6-[((3S)-3-(4-morpholinylmethyl)-3,4-dihydro-2(1H)-isoquinolinyl)carbonyl]-1,3benzodioxol-5-yl}-N-phenyl-indolizine carboxamide hydrochloride] | – | – | – | – | 40.1 | 23.3 (50 mg/kg) |
| CN1CCc2cc(N(C(=O)c3cc(-c4cc5c(cc4C(=O)N4Cc6ccccc6C[C@H]4CN4CCOCC4)OCO5)n4c3CCCC4)c3ccc(O)cc3)ccc21 [Example 9, N-[4-(Hydroxy)phenyl]-N-(1-methyl-2,3-dihydro-1H-indol-5-yl)-3-{6-[((3S)-3-(4-morpholinylmethyl)-3,4-dihydro-2(1H)-isoquinolinyl)carbonyl]-1,3-benzodioxol-5-yl}-5,6,7,8-tetrahydro-1-indolizine carboxamide hydrochloride] | 13 | 16.1 | 20.6 | – | – | – |
| C[C@H]1COC[C@H](C)N1C[C@@H]1Cc2ccccc2CN1C(=O)c1cc2c(cc1-c1cc(C(=O)N(c3ccc(O)cc3)c3ccc4c(ccn4C)c3)c3n1CCCC3)OCO2 [Example 17, 3-{6-[((3S)-3-{[(3S,5S)-3,5-Dimethylmorpholinyl]methyl}-3,4-dihydro-2(1H)-isoquinolinyl)carbonyl]-1,3-benzodioxol-5-yl}-N-(4-hydroxyphenyl)-N-(1-methyl-1H-indol-5-yl)-5,6,7,8-tetrahydro-1-indolizine carboxamide hydrochloride] | 81 | – | – | – | 120 | – |
| O=C(c1cc(-c2cc(Cl)ccc2C(=O)N2Cc3ccccc3C[C@H]2CN2CCOCC2)n2c1CCCC2)N(c1ccc(O)cc1)c1cccc(Cl)c1 [Example 131, 3-(5-Chloro-2-{[(3S)-3-(morpholin-4-ylmethyl)-3,4-dihydroisoquinolin-2(1H)-yl]carbonyl}phenyl)-N-(3-chlorophenyl)-N-(4-hydroxyphenyl)-5,6,7,8-tetrahydroindolizine-1-carboxamide hydrochloride] | 30 | 88.4 | – | – | – | – |
| Cc1ccc(N(C(=O)c2cc(-c3cc4c(cc3C(=O)N3Cc5ccccc5C[C@H]3CN3CCOCC3)OCO4)n3c2CCCC3)c2ccc(O)cc2)cc1F [Example 4, N-(3-Fluoro-4-methylphenyl)-N-(4-hydroxyphenyl)-3-{6-[((3S)-3-(4-morpholinylmethyl)-3,4-dihydro-2(1H)-isoquinolinyl)carbonyl]-1,3-benzodioxol-5-yl}-5,6,7,8-tetrahydro-1-indolizine carboxamide hydrochloride] | 19 | 27.1 | 29.2 | – | – | – |
| COc1cccc(N(C(=O)c2cc(-c3cc(Cl)ccc3C(=O)N3Cc4ccccc4C[C@H]3CN3CCOCC3)n3c2CCCC3)c2ccc(O)cc2)c1 [Example 124, 3-(5-Chloro-2-{[(3S)-3-(morpholin-4-ylmethyl)-3,4-dihydroisoquinolin-2(1H)-yl]carbonyl}phenyl)-N-(4-hydroxyphenyl)-N-(3-methoxyphenyl)-5,6,7,8-tetrahydroindolizine-1-carboxamide hydrochloride] | 28 | 101 | – | – | – | – |
| Cn1ccc2cc(N(C(=O)c3cc(-c4cc5c(cc4C(=O)N4Cc6ccccc6C[C@H]4CN4CCOCC4)OCCO5)n4c3CCCC4)c3ccc(O)cc3)ccc21 [Example 35, N-(4-Hydroxyphenyl)-N-(1-methyl-1H-indol-5-yl)-3-{7-[((3S)-3-(4-morpholinylmethyl)-3,4-dihydro-2(1H)-isoquinolinyl)carbonyl]-2,3-dihydro-1,4-benzodioxin-6-yl}-5,6,7,8-tetrahydro-1-indolizine carboxamide] | 15 | 11.7 | – | – | – | – |
| COc1ccc(C(=O)N2Cc3ccccc3C[C@H]2CN2CCOCC2)c(-c2cc(C(=O)N(c3ccc(O)cc3)c3ccc4c(cnn4C)c3)c3n2CCCC3)c1 [Example 104, N-(4-Hydroxyphenyl)-3-(5-methoxy-2-{[(3S)-3-(morpholin-4-ylmethyl)-3,4-dihydroisoquinolin-2(1H)-yl]carbonyl}phenyl)-N-(1-methyl-1H-indazol-5-yl)-5,6,7,8-tetrahydroindolizine-1-carboxamide hydrochloride] | 7 | 21.6 | – | – | – | – |

— patent publication US9120791B2, “Indolizine compounds, a process for their preparation and pharmaceutical compositions containing them” (LES LABORATOIRES SERVIER, priority 2012, dated 2015)
